From patent publication US5643604A, “Parenteral dosage form” (Aplicaciones Farmaceuticas S.A. De C.V., priority 1990, dated 1997)

What was measured:
[1] = Comparative infrared spectrophotometry (FT-IR, with HPLC diode-array) before and after formation of microspheres; format: physicochemical; settings: after the formation of microspheres; potassium bromide dispersion
Text: (§1) It is necessary to check that no chemical damage of the substances occurs during the spray-freezing process, which could modify their therapeutic properties. The starting materials (crystals) and the microspheres obtained by spray-freezing are compared by UV and IR spectrophotometry. UV spectras shall always be superimposable and IR spectras shall correspond. If differences in infrared spectras appear, it shall be checked if they are due to a polymorphism phenomenon, by means of an HPLC setup with diode-array detection. Differential thermal analysis is also used, not only to check the melting points, but also to determine if endothermic or exothermic transitions occur, due either to structure modifications or to a polymorphism, which may influence the microsphere information process, or due to heat-induced chemical reactions.
Equipment used in infrared spectrophotometry: Nicolet 205 FT-IR. Dispersion medium: potassium bromide. Chromatography: HPLC device with photo diode-array detector, model Waters 990 and Nec powermate 2 workstation.

[2] = Differential thermal analysis (DSC); settings: Shimadzu DSC 50 calorimeter
Text: as §1
Thermal analysis: Shimadzu DSC 50 calorimeter and CR4A workstation.

[3] = Comparative UV spectrophotometric analysis before and after formation of microspheres; format: physicochemical; settings: starting materials (crystals) vs microspheres obtained by spray-freezing; ethanol for 17-beta-estradiol and cholesterol, 0.1N HCl for the others
Text: as §1
Equipment used in ultraviolet spectrography: Hewlett Packard model 8452A with photodiode arrangement and quartz cell with a beam of 0.1 cm.

[4] = general statement, no test described; cited from earlier work

SMILES	chemical modification by infrared spectrophotometry [1]	degradation on differential thermograms [2]	chemical modification by UV spectrophotometry [3]	solubility in water [4]
C[C@]12CC[C@@H]3c4ccc(O)cc4CC[C@H]3[C@@H]1CC[C@@H]2O [17-beta-estradiol]	no modification	no degradation	no trace of modification	–
CCCC[N+]1(C)C2CC(OC(=O)C(CO)c3ccccc3)CC1C1OC12 (centres unmarked) [butylhioscine bromide]	produces chemical modifications	–	no trace of modification	–
Cn1c(=O)c2c(ncn2C)n(C)c1=O [caffeine]	–	no degradation	no trace of modification	–
CC(C)CCC[C@@H](C)[C@H]1CC[C@H]2[C@@H]3CC=C4C[C@@H](O)CC[C@]4(C)[C@H]3CC[C@]12C [cholesterol]	no modification	–	no trace of modification	–
CN1C(=O)CN=C(c2ccccc2)c2cc(Cl)ccc21 [diazepam]	–	no degradation	–	–
CCN(CC)CCNC(=O)c1cc(Cl)c(N)cc1OC [methoclopramide]	–	–	–	freely soluble in water
